Measurements taken from patent publication US20140328893A1, “NUTLIN COMPOUNDS FOR USE IN THE TREATMENT OF PULMONARY HYPERTENSION” (Institut National de la Sante et de la Recherche Medicale …, priority 2011, published 2014).

Experiments:
[1] = test system: mice exposed to chronic hypoxia; experiment: Pulmonary hypertension in mice exposed to chronic hypoxia; format: in vivo
Procedure: (§1) Wild-type mice aged 15-20 weeks were randomly allocated to room air or chronic hypoxia. Transgenic animals expressing the human 5-HTT gene in smooth muscle (SM22-5-HTT+ mice) were produced as previously described. All animal care and procedures were in accordance with institutional guidelines.
(§2) Nutlin-3 was administered at the increasing dosages of 6, 12, and 25 mg/Kg/day by intraperitoneal injection. At completion of treatment, lungs were removed and prepared for histological or Western blot analyses.
Mice were exposed to chronic hypoxia (10% O2) in a ventilated chamber (Biospherix, N.Y., USA). The hypoxic environment was established by flushing the chamber with a mixture of room air and nitrogen, and the gas was recirculated. The chamber environment was monitored using an oxygen analyzer. Carbon dioxide was removed by soda lime granules, and excess humidity was prevented by cooling of the recirculation circuit. Normoxic mice were kept in the same room, with the same light-dark cycle.
Mice exposed previously to hypoxia or room air or SM22-5-HTT+ mice were anaesthetized. After incision of the abdomen, a 26-gauge needle connected to a pressure transducer was inserted into the right ventricle through the diaphragm, and right ventricular systolic pressure (RVSP) was recorded immediately. Then, the thorax was opened and the lungs and heart were removed. The right ventricle (RV) was dissected from the left ventricle plus septum (LV+S), and these dissected samples were weighed for determination of Fulton's index (RV/LV+S). The lungs were fixed by intratracheal infusion of 4% aqueous buffered formalin. A midsagittal slice of the right lung was processed for paraffin embedding. Sections 5 μm in thickness were cut and stained with hematoxylin-phloxine-saffron for examination by light microscopy. In each mouse, a total of 20 to 30 intraacinar vessels accompanying either alveolar ducts or alveoli were examined by an observer who was blinded to the treatment or genotype. Each vessel was categorized as nonmuscular (no evidence of vessel wall muscularization), partially muscular (smooth muscle cells [SMCs] identifiable in less than three-fourths of the vessel circumference), or fully muscular (SMCs in more than three-fourths of the vessel circumference). The percentage of pulmonary vessels in each muscularization category was determined by dividing the number of vessels in that category by the total number counted in the relevant group of animals. For fully muscular vessels, video images were obtained and arterial diameters were measured using computerized image-analysis software. Percent wall thickness was then calculated as the diameter of the external elastic lamina minus the diameter of the internal lamina divided by the diameter of the external elastic lamina.

p53 pathway [2] = experiment: Lung p53 and p21 levels in SM22-5-HTT+ mice (Western blotting, RT-qPCR); format: in vivo
Procedure: as §2
(§3) p53, p16, p21, caspase and MDM2 proteins were detected and measured in lung tissues and/or cells using Western blotting. Levels of p21, Bax, and PUMA mRNA in lung tissues and/or cells were determined using RT-qPCR. Total mRNA was extracted from lung tissues and PA-SMC using RNeasy Mini Kit (Qiagen, ZA Courtaboeuf, France). First-strand cDNA was synthesized in reversed transcribed samples, as follows: 1 μg total RNA isolated from cells or lung tissues, 200 U/μL SuperScrip II RT (Invitrogen, Life Technologies, Cergy-Pontoise, France), 100 ng Random primers and 10 mM mixed dNTP. Quantitative PCR was performed in a 7900HT Real-Time PCR system (Applied Biosystems, ZA Courtaboeuf, France), using SYBR green Mix from Invitrogen.

cultured human PA-SMC [3] = experiment: PA-SMC senescence (beta-galactosidase-positive cells); format: cell-based; conditions: 48 hours incubation
Procedure: (§4) Cultured PA-SMCs were collected from pulmonary arteries of patients undergoing lung surgery for localized lung tumours. To determine the phenotypic characteristics of cultured PA-SMCs, the cells from each culture were assessed for expression of musclespecific contractile and cytoskeletal proteins, including smooth muscle cell α-actin and desmin.
(§5) To assess the effects of nutlin on cell senescence, the percentage of beta-galactosidase (β-gap)-positive cells was measured after 48 hours incubation with nutlin-3 in presence or absence of vehicle or PDGF. The amounts of p53, p16, and p21 proteins or mRNA were determined by western blotting o by RT-qPCR, respectively.

p53 pathway [4] = experiment: p53 pathway activation in cultured human PA-SMCs (Western blotting, RT-qPCR); format: cell-based; conditions: 2.5 to 10 μM
Procedure: as §4, §5, §3

SM22-5-HTT+ mice = experiment: Pulmonary hypertension in SM22-5-HTT+ mice; format: in vivo; conditions: 12 mg/Kg/day
Procedure: as §1, §2
Mice exposed previously to hypoxia or room air or SM22-5-HTT+ mice were anaesthetized. After incision of the abdomen, a 26-gauge needle connected to a pressure transducer was inserted into the right ventricle through the diaphragm, and right ventricular systolic pressure (RVSP) was recorded immediately. Then, the thorax was opened and the lungs and heart were removed. […] The percentage of pulmonary vessels in each muscularization category was determined by dividing the number of vessels in that category by the total number counted in the relevant group of animals. For fully muscular vessels, video images were obtained and arterial diameters were measured using computerized image-analysis software. Percent wall thickness was then calculated as the diameter of the external elastic lamina minus the diameter of the internal lamina divided by the diameter of the external elastic lamina.

p53 pathway [5] = experiment: Lung p53 and p21 levels in hypoxic mice (Western blotting, RT-qPCR); format: in vivo
Procedure: as §2, §3

cultured human PA-SMC [6] = experiment: PA-SMC proliferation (MTT); format: cell-based; conditions: 2.5-10 μM, 48 hours
Procedure: as §4
To assess the effects of nutlin-3 on PASMC proliferation, cells were exposed to increasing concentration of nutlin-3a (2.5-10 μM) or vehicle in serum-free medium or in presence of PDGF-BB (50 ng/ml). After 48 hours, tetrazolium salt (MTT), (Sigma, Lyon, France) was added to each well (0.2 mg/ml). After 4 hours incubation at 37° C., the culture medium was removed and formazan crystals were solubilized by adding 500 μL of DMSO. Tetrazolium salt reduction to formazan within the cells was quantified by spectrophotometry at 520 nm.

[7] = test system: p53-deficient (p53−/−) mice; experiment: Chronic hypoxia-induced pulmonary hypertension in p53-deficient mice; format: in vivo
From the text: Normoxic mice were kept in the same room, with the same light-dark cycle.

[8] = chronic hypoxia mice, 6 to 25 mg/Kg/day intraperitoneally
[9] = mice, associated with protective effects

SMILES | distal pulmonary artery muscularization [1, 8] | pulmonary hypertension [1, 8] | right ventricular hypertrophy [1, 8] | PA-SMC proliferation [1, 9] | apoptosis [1, 9] | lung p21 mRNA (p53 pathway [2]) | lung p21 protein (p53 pathway [2]) | lung p53 protein (p53 pathway [2]) | percentage of beta-galactosidase stained cells (senescent cells) (cultured human PA-SMC [3]) | mRNA level of p53 target gene Bax (p53 pathway [4]) | mRNA level of p53 target gene PUMA (p53 pathway [4]) | mRNA level of p53 target gene p21 (p53 pathway [4]) | p53 protein (p53 pathway [4]) | PH in SM22-5-HTT+ mice (SM22-5-HTT+ mice) | lung p21 mRNA (p53 pathway [5]) | lung p21 protein (p53 pathway [5]) | lung p53 protein (p53 pathway [5]) | cell proliferation stimulated by 50 ng/ml PDGF (cultured human PA-SMC [6]; 50 ng/ml PDGF) | cell proliferation stimulated by 0.2% FCS (cultured human PA-SMC [6]; 0.2% FCS) | pulmonary hypertension induced by chronic hypoxia in p53-deficient mice [7]
COc1ccc(C2=NC(c3ccc(Cl)cc3)C(c3ccc(Cl)cc3)N2C(=O)N2CCNC(=O)C2)c(OC(C)C)c1 (racemic) [Nutlin-3, (±)-4-[4,5-Bis(4-chlorophenyl)-2-(2-isopropoxy-4-methoxy-phenyl)-4,5-dihydro-imidazole-1-carbonyl]-piperazin-2-one] | prevented | prevented | prevented | decrease | increase | marked increases | marked increases | marked increases | increase | increased | increased | increased | increased | partially reversed | marked increases | marked increases | marked increases | dose-dependent inhibition | dose-dependent inhibition | 
COc1ccc(C2=N[C@@H](c3ccc(Cl)cc3)[C@@H](c3ccc(Cl)cc3)N2C(=O)N2CCNC(=O)C2)c(OC(C)C)c1 [nutlin-3a] |  |  |  |  |  |  |  |  |  |  |  |  |  |  |  |  |  |  |  | remained unaffected
